Results reported in ChEMBL document CHEMBL3044978, “Efficacy of acibenzolar-S-methyl and two strobilurins, azoxystrobin and trifloxystrobin, for the control of corky root of tomato and verticillium wilt of eggplant” (Crop Prot, 2006).
Activity calls are given as the source filed them. The calls are words filed in the database; no cut-off is given here.

What was measured:
[1] = tested on: Solanum lycopersicum; experiment: Phytotoxicity in Solanum lycopersicum (tomato) plant assessed as plant stunting at 87.5 to 100 mg/l after 120 days under greenhouse condition; assay type: organism-based; conditions: in vivo, 2880 h
[2] = tested on: Solanum melongena; experiment: Phytotoxicity in Solanum melongena (eggplant) assessed as plant stunting at 87.5 to 100 mg/l after 80 days under greenhouse condition; assay type: organism-based; conditions: in vivo, 1920 h
[3] = tested on: Solanum melongena; experiment: Phytotoxicity in Solanum melongena (eggplant) assessed as leaf chlorosis at 100 to 250 mg/l after 80 to 120 days under field condition; assay type: organism-based; conditions: in vivo
[4] = tested on: Verticillium dahliae; experiment: Fungicidal activity against Verticillium dahliae infected eggplant assessed as vascular discoloration at 100 to 250 mg/l after 120 days under field condition relative to untreated control; assay type: functional, organism-based
[5] = tested on: Verticillium dahliae; experiment: Fungicidal activity against Verticillium dahliae infected eggplant assessed as reduction in severity of external symptoms at 100 to 250 mg/l after 80 to 120 days under field condition relative to untreated control; assay type: functional; set-up: scale not given: the % may be the effect or the level left
[6] = tested on: Solanum lycopersicum; experiment: Phytotoxicity in Solanum lycopersicum (tomato) plant assessed as leaf chlorosis at 100 to 250 mg/l after 120 days under field condition; assay type: organism-based; conditions: in vivo, 2880 h
[7] = tested on: Pseudopyrenochaeta lycopersici; experiment: Fungicidal activity against Pyrenochaeta lycopersici infected tomato plant assessed as diseased root surface at 100 to 250 mg/l after 100 days under field condition relative to untreated control; assay type: functional
[8] = tested on: Verticillium dahliae; experiment: Fungicidal activity against Verticillium dahliae infected eggplant assessed as wilted leaves at 87.5 to 100 mg/l after 80 days under greenhouse condition relative to untreated control; assay type: functional
[9] = tested on: Pseudopyrenochaeta lycopersici; experiment: Fungicidal activity against Pyrenochaeta lycopersici infected tomato plant assessed as diseased root surface at 87.5 to 100 mg/l after 120 days under greenhouse condition relative to untreated control; assay type: functional
[10] = tested on: Solanum melongena; experiment: Phytotoxicity in Solanum melongena (eggplant) assessed as leaf chlorosis at 12.5 mg/l after 80 to 120 days under field condition; assay type: organism-based; conditions: in vivo
[11] = tested on: Solanum melongena; experiment: Induction of systemic acquired resistance activity in Solanum melongena (eggplant) infected with Verticillium dahliae assessed as vascular discoloration at 12.5 mg/l after 120 days under field condition relative to untreated control; assay type: functional, organism-based
[12] = tested on: Solanum melongena; experiment: Induction of systemic acquired resistance activity in Solanum melongena (eggplant) infected with Verticillium dahliae assessed as reduction in severity of external symptoms at 12.5 mg/l after 80 to 120 days under field condition relative to untreated control; assay type: functional; set-up: scale not given: the % may be the effect or the level left
[13] = tested on: Solanum lycopersicum; experiment: Phytotoxicity in Solanum lycopersicum (tomato) plant assessed as leaf chlorosis at 12.5 mg/l after 120 days under field condition; assay type: organism-based; conditions: in vivo, 2880 h
[14] = tested on: Solanum lycopersicum; experiment: Induction of systemic acquired resistance activity in Solanum lycopersicum (tomato) plant infected with Pyrenochaeta lycopersici assessed as diseased root surface at 12.5 mg/l after 100 days under field condition relative to untreated control; assay type: functional
[15] = tested on: Solanum melongena; experiment: Phytotoxicity in Solanum melongena (eggplant) assessed as plant stunting at 12.5 to 87.5 mg/l after 80 days under greenhouse condition; assay type: organism-based; conditions: in vivo, 1920 h
[16] = tested on: Solanum melongena; experiment: Phytotoxicity in Solanum melongena (eggplant) assessed as leaf chlorosis at 12.5 to 87.5 mg/l after 80 days under greenhouse condition; assay type: organism-based; conditions: in vivo, 1920 h
[17] = tested on: Solanum lycopersicum; experiment: Phytotoxicity in Solanum lycopersicum (tomato) plant assessed as plant stunting at 12.5 to 87.5 mg/l after 120 days under greenhouse condition; assay type: organism-based; conditions: in vivo, 2880 h
[18] = tested on: Solanum lycopersicum; experiment: Phytotoxicity in Solanum lycopersicum (tomato) plant assessed as leaf chlorosis at 12.5 to 87.5 mg/l after 120 days under greenhouse condition; assay type: organism-based; conditions: in vivo, 2880 h
[19] = tested on: Solanum melongena; experiment: Phytotoxicity in Solanum melongena (eggplant) assessed as plant stunting after 80 days under greenhouse condition; assay type: organism-based; conditions: in vivo, 1920 h
[20] = tested on: Solanum lycopersicum; experiment: Phytotoxicity in Solanum lycopersicum (tomato) plant assessed as plant stunting after 120 days under greenhouse condition; assay type: organism-based; conditions: in vivo, 2880 h
[21] = tested on: Solanum melongena; experiment: Phytotoxicity in Solanum melongena (eggplant) assessed as plant stunting during early growth stage after 80 to 120 days under field condition; assay type: organism-based; conditions: in vivo
[22] = tested on: Verticillium dahliae; experiment: (§1) Fungicidal activity against Verticillium dahliae infected eggplant assessed as vascular discoloration applied as dipping of seedling roots into fungicide water suspension before transplanting and two soil drenches post transplanting after 120 days under field condition relative to untreated control; assay type: functional, organism-based
[23] = tested on: Verticillium dahliae; experiment: Fungicidal activity against Verticillium dahliae infected eggplant assessed as vascular discoloration applied as one soil drench and two foliar sprays post transplanting after 120 days under field condition relative to untreated control; assay type: functional, organism-based
[24] = tested on: Verticillium dahliae; experiment: (§2) Fungicidal activity against Verticillium dahliae infected eggplant assessed as vascular discoloration applied as dipping of seedling roots into fungicide water suspension before transplanting and one soil drench post transplanting after 120 days under field condition relative to untreated control; assay type: functional, organism-based
[25] = tested on: Verticillium dahliae; experiment: as §1, with “reduction in severity of external symptoms” for “vascular discoloration”, “after 80 to” for “after”; assay type: functional; set-up: scale not given: the % may be the effect or the level left
[26] = tested on: Verticillium dahliae; experiment: Fungicidal activity against Verticillium dahliae infected eggplant assessed as reduction in severity of external symptoms applied as one soil drench and two foliar sprays post transplanting after 80 to 120 days under field condition relative to untreated control; assay type: functional; set-up: scale not given: the % may be the effect or the level left
[27] = tested on: Verticillium dahliae; experiment: as §2, with “reduction in severity of external symptoms” for “vascular discoloration”, “after 80 to” for “after”; assay type: functional; set-up: scale not given: the % may be the effect or the level left
[28] = tested on: Solanum lycopersicum; experiment: Phytotoxicity in Solanum lycopersicum (tomato) plant assessed as plant stunting during early growth stage after 120 days under field condition; assay type: organism-based; conditions: in vivo, 2880 h
[29] = tested on: Pseudopyrenochaeta lycopersici; experiment: as §1, with “Pyrenochaeta lycopersici” for “Verticillium dahliae”, “tomato plant” for “eggplant”, “diseased root surface” for “vascular discoloration”, “100” for “120”; assay type: functional
[30] = tested on: Pseudopyrenochaeta lycopersici; experiment: Fungicidal activity against Pyrenochaeta lycopersici infected tomato plant assessed as diseased root surface applied as one soil drench and two foliar sprays post transplanting after 100 days under field condition relative to untreated control; assay type: functional
[31] = tested on: Pseudopyrenochaeta lycopersici; experiment: Fungicidal activity against Pyrenochaeta lycopersici infected tomato plant assessed as diseased root surface applied as dipping of seedling roots into fungicide water suspension before transplanting and one soil drench post transplanting after 100 days under field condition relative to untreated control; assay type: functional
[32] = tested on: Verticillium dahliae; experiment: Fungicidal activity against Verticillium dahliae infected eggplant assessed as wilted leaves after 80 days under greenhouse condition relative to untreated control; assay type: functional
[33] = tested on: Pseudopyrenochaeta lycopersici; experiment: Fungicidal activity against Pyrenochaeta lycopersici infected tomato plant assessed as diseased root surface after 120 days under greenhouse condition relative to untreated control; assay type: functional

CO/N=C(\C(=O)OC)c1ccccc1CO/N=C(\C)c1cccc(C(F)(F)F)c1
Activity [1]: Non-toxic
Activity [2]: Non-toxic
Activity [3]: Non-toxic
Activity [4]: inactive
Activity [5]: 17.6%
Activity [6]: Non-toxic
Activity [7]: 48.7%
Activity [8]: 78.1%
Activity [9]: 93.3%

CSC(=O)c1cccc2nnsc12 [ACIBENZOLAR-S-METHYL]
Activity [10]: Non-toxic
Activity [11]: inactive
Activity [12]: 6.9%
Activity [13]: Non-toxic
Activity [14]: 62.7%
Activity [15]: Toxic
Activity [16]: Toxic
Activity [17]: Toxic
Activity [18]: Toxic

CO/C=C(/C(=O)OC)c1ccccc1Oc1cc(Oc2ccccc2C#N)ncn1 [AZOXYSTROBIN]
Activity [19]: Toxic
Activity [20]: Toxic
Activity [21]: Toxic
Activity [22]: inactive
Activity [23]: inactive
Activity [24]: inactive
Activity [25]: 24.6%
Activity [26]: 24.6%
Activity [27]: 29.4%
Activity [28]: Toxic
Activity [29]: 83.7%
Activity [30]: 81.7%
Activity [31]: 73.5%
Activity [32]: 95.1%
Activity [33]: 98.3%
